Laboratory results reported in patent publication US20120142667A1, “PYRIMIDINE DERIVATIVES AS ZAP-70 INHIBITORS” (priority 2009, published 2012).
Structures can show the parent of a compound that is named as a salt.

target: T1, ZAP-70 (Homo sapiens, UniProt P43403); experiment: ZAP-70 kinobeads assay; type: binding; conditions: cell lysate
T1 construct: endogenous in cells; host or cells: cell lysate
T1 sequence (P43403 1-619): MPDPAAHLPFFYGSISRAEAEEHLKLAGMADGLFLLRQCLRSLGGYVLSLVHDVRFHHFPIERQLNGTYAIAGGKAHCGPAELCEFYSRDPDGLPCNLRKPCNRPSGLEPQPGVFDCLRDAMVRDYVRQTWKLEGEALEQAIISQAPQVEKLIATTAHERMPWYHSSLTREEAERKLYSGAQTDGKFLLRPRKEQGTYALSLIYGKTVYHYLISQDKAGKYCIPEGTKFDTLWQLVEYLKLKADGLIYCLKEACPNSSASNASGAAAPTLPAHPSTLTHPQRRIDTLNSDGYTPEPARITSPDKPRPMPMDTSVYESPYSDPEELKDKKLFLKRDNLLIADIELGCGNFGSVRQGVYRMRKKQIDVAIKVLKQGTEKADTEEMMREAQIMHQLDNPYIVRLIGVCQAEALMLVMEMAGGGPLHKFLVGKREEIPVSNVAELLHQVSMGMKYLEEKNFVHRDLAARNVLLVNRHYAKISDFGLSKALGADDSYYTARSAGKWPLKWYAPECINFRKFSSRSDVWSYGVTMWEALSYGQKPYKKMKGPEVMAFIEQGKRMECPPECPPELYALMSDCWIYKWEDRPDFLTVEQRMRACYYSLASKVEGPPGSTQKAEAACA
Description: The compounds of the present invention as described in the previous examples can be tested in the ZAP-70 kinobeads assay as described (EP-A 1862802 and WO-A 2007/137867). Briefly, test compounds (at various concentrations) and the affinity matrix with the immobilized aminopyrido-pyrimidine ligand 24 are added to cell lysate aliquots and allowed to bind to the proteins in the lysate sample. After the incubation time the beads with captured proteins are separated from the lysate. Bound proteins are then eluted and the presence ZAP-70 is detected and quantified using a specific antibody in a dot blot procedure and the Odyssey infrared detection system.

Compound	IC50 [µM]
COc1ccc(OC)c(Nc2ncc(Br)c(Nc3ccccc3NS(C)(=O)=O)n2)c1 [Example 7, N-(2-(5-bromo-2-(2,5-dimethoxyphenylamino)pyrimidin-4-ylamino)phenyl)methanesulfonamide]	0.1 to 1
COc1ccc(C)c(Nc2ncc(F)c(Nc3ccccc3NS(C)(=O)=O)n2)c1 [Example 13, N-(2-(5-fluoro-2-(5-methoxy-2-methylphenylamino)pyrimidin-4-ylamino)phenyl)methanesulfonamide]	1 to 10
COc1ccc(Nc2ncc(F)c(Nc3ccccc3NS(C)(=O)=O)n2)c(OC)c1 [Example 14, N-(2-(2-(2,4-dimethoxyphenylamino)-5-fluoropyrimidin-4-ylamino)phenyl)methanesulfonamide]	1 to 10
COc1ccc(OC)c(Nc2ncc(F)c(Nc3ccccc3NS(C)(=O)=O)n2)c1 [Example 15, N-(2-(2-(2,5-dimethoxyphenylamino)-5-fluoropyrimidin-4-ylamino)phenyl)methanesulfonamide]	1 to 10
COc1ccc(Nc2nc(Nc3cc(OC)ccc3OC)ncc2Cl)c(NS(C)(=O)=O)c1 [Example 22, N-(2-(5-chloro-2-(2,5-dimethoxyphenylamino)pyrimidin-4-ylamino)-5-methoxyphenyl)methanesulfonamide]	0.1 to 1
COc1ccc(Nc2nc(Nc3cc(OC)ccc3OC)ncc2Br)c(NS(C)(=O)=O)c1 [Example 23, N-(2-(5-bromo-2-(2,5-dimethoxyphenylamino)pyrimidin-4-ylamino)-5-methoxyphenyl)methanesulfonamide]	0.1 to 1
COc1ccc(Nc2nc(Nc3cc(OC)c(OC)cc3OC)ncc2F)c(NS(C)(=O)=O)c1 [Example 25, N-(2-(5-fluoro-2-(2,4,5-trimethoxyphenylamino)pyrimidin-4-ylamino)-5-methoxyphenyl)methanesulfonamide]	0.1 to 1
COc1ccc(Nc2ncc(Br)c(Nc3ccccc3NS(C)(=O)=O)n2)c(OC)c1 [Example 26, N-(2-(5-bromo-2-(2,4-dimethoxyphenylamino)pyrimidin-4-ylamino)phenyl)methanesulfonamide]	0.1 to 1
COc1ccc(Nc2nc(Nc3cc(OC)ccc3OC)ncc2F)c(NS(C)(=O)=O)c1 [Example 27, N-(2-(2-(2,5-dimethoxyphenylamino)-5-fluoropyrimidin-4-ylamino)-5-methoxyphenyl)methanesulfonamide]	1 to 10
COc1cc(OCCCN2CCCCC2)ccc1Nc1ncc(Br)c(Nc2ccccc2NS(C)(=O)=O)n1 [Example 28, N-(2-(5-bromo-2-(2-methoxy-4-(3-(piperidin-1-yl)propoxy)phenylamino)pyrimidin-4-ylamino)phenyl)methanesulfonamide]	≤ 0.1
COc1cc(OC)c(OC)cc1Nc1ncc(Br)c(Nc2ccccc2NS(C)(=O)=O)n1 [Example 31, N-(2-(5-bromo-2-(2,4,5-trimethoxyphenylamino)pyrimidin-4-ylamino)phenyl)methanesulfonamide]	0.1 to 1
COc1ccc(Nc2ncc(Cl)c(Nc3ccc(OC)cc3NS(C)(=O)=O)n2)c(F)c1 [Example 33, N-(2-(5-chloro-2-(2-fluoro-4-methoxyphenylamino)pyrimidin-4-ylamino)-5-methoxyphenyl)methanesulfonamide]	0.1 to 1
COc1ccc(Nc2nc(Nc3ccc(OC)cc3OC)ncc2Cl)c(NS(C)(=O)=O)c1 [Example 34, N-(2-(5-chloro-2-(2,4-dimethoxyphenylamino)pyrimidin-4-ylamino)-5-methoxyphenyl)methanesulfonamide]	0.1 to 1
COc1ccc(Nc2ncc(Cl)c(Nc3ccc(OC)cc3NS(C)(=O)=O)n2)c(C)c1 [Example 35, N-(2-(5-chloro-2-(4-methoxy-2-methylphenylamino)pyrimidin-4-ylamino)-5-methoxyphenyl)methanesulfonamide]	0.1 to 1
COc1ccc(Nc2nc(Nc3ccc(OC)nc3OC)ncc2Cl)c(NS(C)(=O)=O)c1 [Example 36, N-(2-(5-chloro-2-(2,6-dimethoxypyridin-3-ylamino)pyrimidin-4-ylamino)-5-methoxyphenyl)methanesulfonamide]	0.1 to 1
COc1ccc(Nc2nc(Nc3cc(F)c(OC)cc3OC)ncc2Cl)c(NS(C)(=O)=O)c1 [Example 38, N-(2-(5-chloro-2-(5-fluoro-2,4-dimethoxyphenylamino)pyrimidin-4-ylamino)-5-methoxyphenyl)methanesulfonamide hydrochloride]	0.1 to 1

The next lines start with the values.

IC50 [µM]	Compound
1 to 10	CS(=O)(=O)Nc1ccccc1Nc1nc(Nc2ccccc2F)ncc1F [Example 1, N-(2-(5-fluoro-2-(2-fluorophenylamino)pyrimidin-4-ylamino)phenyl)methanesulfonamide]
1 to 10	CS(=O)(=O)Nc1ccccc1Nc1nc(Nc2ccccc2OC(F)F)ncc1Br [Example 6, N-(2-(5-bromo-2-(2-(difluoromethoxy)phenylamino)pyrimidin-4-ylamino)phenyl)methanesulfonamide]
1 to 10	COc1ccccc1Nc1ncc(F)c(Nc2ccccc2NS(C)(=O)=O)n1 [Example 8, N-(2-(5-fluoro-2-(2-methoxyphenylamino)pyrimidin-4-ylamino)phenyl)methanesulfonamide]
1 to 10	COc1cccc(Nc2ncc(Br)c(Nc3ccccc3NS(C)(=O)=O)n2)c1OC [Example 9, N-(2-(5-bromo-2-(2,3-dimethoxyphenylamino)pyrimidin-4-ylamino)phenyl)methanesulfonamide]
1 to 10	CS(=O)(=O)Nc1ccccc1Nc1nc(Nc2cc(F)ccc2F)ncc1F [Example 10, N-(2-(2-(2,5-difluorophenylamino)-5-fluoropyrimidin-4-ylamino)phenyl)methanesulfonamide]
0.1 to 1	CS(=O)(=O)Nc1ccccc1Nc1nc(Nc2ccccc2F)ncc1Br [Example 17, N-(2-(5-bromo-2-(2-fluorophenylamino)pyrimidin-4-ylamino)phenyl)methanesulfonamide hydrochloride]
1 to 10	CS(=O)(=O)Nc1ccccc1Nc1nc(Nc2ccccc2Cl)ncc1Br [Example 18, N-(2-(5-bromo-2-(2-chlorophenylamino)pyrimidin-4-ylamino)phenyl)methanesulfonamide hydrochloride]
1 to 10	CCc1ccccc1Nc1ncc(Br)c(Nc2ccccc2NS(C)(=O)=O)n1 [Example 19, N-(2-(5-bromo-2-(2-ethylphenylamino)pyrimidin-4-ylamino)phenyl)methanesulfonamide hydrochloride]
0.1 to 1	CS(=O)(=O)Nc1ccccc1Nc1nc(Nc2ccccc2O)ncc1Br [Example 20, N-(2-(5-bromo-2-(2-hydroxyphenylamino)pyrimidin-4-ylamino)phenyl)methanesulfonamide hydrochloride]
0.1 to 1	COc1ccccc1Nc1ncc(Br)c(Nc2ccccc2NS(C)(=O)=O)n1 [Example 21, N-(2-(5-bromo-2-(2-methoxyphenylamino)pyrimidin-4-ylamino)phenyl)methanesulfonamide hydrochloride]
0.1 to 1	Cc1ccccc1Nc1ncc(Br)c(Nc2ccccc2NS(C)(=O)=O)n1 [Example 24, N-(2-(5-bromo-2-(2-methylphenylamino)pyrimidin-4-ylamino)phenyl)methanesulfonamide hydrochloride]
